Experiments:
[1] = molecular target: recombinant N-terminal PMS2 (residues 1-365) (Homo sapiens (Human), UniProt P54278); test: Fluorescence polarisation assay for PMS2; assay type: binding; settings: FP probe displacement; 10 nM N-terminal PMS2, 5 nM probe compound, read after 1 hour
Procedure: Fluorescence Polarisation Assay for PMS2
(§1) Test compounds, as 10 mM DMSO stocks, were dispensed into a Black Fluotrac 200 384 well medium binding plate (Greiner Bio-One, item number 781076) using a Labcyte Echo acoustic liquid handler. For single point screening, test compounds were added to wells in columns 1-22 whilst DMSO was added to wells in columns 23 and 24 in order to normalise the plate. For potency determination, serial dilutions of test compounds were added to wells in columns 3-22 and DMSO volume was normalised across the plate.
20 μL assay buffer was added to all wells in columns 1 and 24 (column 24 only for single point screening) using a MultiDrop Combi (ThermoFisher). Plates were centrifuged for 1 minute at 250×g and were incubated at room temperature for 30 minutes prior to the addition of 20 μL of 2×([…]) of 5-((5-(4-((2-(2,4-dihydroxy-5-isopropylbenzoyl)isoindolin-5-yl)methyl)piperazin-1-yl)pentyl)carbamoyl)-2-(6-(dimethylamino)-3-(dimethyliminio)-3H-xanthen-9-yl)benzoate (referred to hereinafter as “probe compound”) in assay buffer (prepared from a 100 μM DMSO stock) with a MultiDrop Combi (ThermoFisher). The final concentration of N-terminal PMS2 was 10 nM and the final concentration of probe compound was 5 nM.
(§2) Compound plates were centrifuged for 1 minute at 250×g for 1 minute and were incubated at room temperature for 1 hour before being read on a PheraStar FSX (fitted with 384-well aperture spoon and 540 590 590 FP optic module). The gain and focus were adjusted before each plate was read so that the polarisation of a no enzyme control (column 24) was equal to 35 mP. Data were normalised against the no inhibitor controls (column 23) and no enzyme controls (column 24).

[2] = molecular target: recombinant N-terminal MLH1 (residues 15-340) (Homo sapiens (Human), UniProt P40692); test: Fluorescence polarisation assay for MLH1 (protocol for all Examples except Examples 64, 76, 90 and 95); assay type: binding; settings: FP probe displacement; 100 nM N-terminal MLH1, 5 nM probe compound, read after 15 minutes; all Examples except 64, 76, 90 and 95
Procedure: Fluorescence Polarisation Assay for MLH1 (Protocol for all Examples Except Examples 64, 76, 90 and 95)
as §1
20 μL assay buffer was added to all wells in columns 1 and 24 (column 24 only for single point screening) using a MultiDrop Combi (ThermoFisher). Plates were centrifuged for 1 minute at 250×g and were incubated at room temperature for 30 minutes prior to the addition of 20 μL of 2×(10 nM) of 5-((5-(4-((2-(2,4-dihydroxy-5-isopropylbenzoyl)isoindolin-5-yl)methyl)piperazin-1-yl)pentyl)carbamoyl)-2-(6-(dimethylamino)-3-(dimethyliminio)-3H-xanthen-9-yl)benzoate (referred to hereinafter as “probe compound”) in assay buffer (prepared from a 100 μM DMSO stock) with a MultiDrop Combi (ThermoFisher). The final concentration of N-terminal MLH1 was 100 nM and the final concentration of probe compound was 5 nM.
as §2, with “15 minutes” for “1 hour”

Chain of recombinant N-terminal MLH1 (residues 15-340) (P40692 15-340): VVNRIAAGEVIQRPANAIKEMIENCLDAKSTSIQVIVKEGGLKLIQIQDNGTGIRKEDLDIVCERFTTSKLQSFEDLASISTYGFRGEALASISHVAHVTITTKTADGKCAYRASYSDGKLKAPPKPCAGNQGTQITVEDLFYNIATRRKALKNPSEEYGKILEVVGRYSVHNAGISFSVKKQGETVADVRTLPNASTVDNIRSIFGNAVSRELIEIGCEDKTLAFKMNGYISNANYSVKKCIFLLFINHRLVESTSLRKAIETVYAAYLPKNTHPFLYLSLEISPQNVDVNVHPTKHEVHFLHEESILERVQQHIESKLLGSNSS
Chain of recombinant N-terminal PMS2 (residues 1-365) (P54278 1-365): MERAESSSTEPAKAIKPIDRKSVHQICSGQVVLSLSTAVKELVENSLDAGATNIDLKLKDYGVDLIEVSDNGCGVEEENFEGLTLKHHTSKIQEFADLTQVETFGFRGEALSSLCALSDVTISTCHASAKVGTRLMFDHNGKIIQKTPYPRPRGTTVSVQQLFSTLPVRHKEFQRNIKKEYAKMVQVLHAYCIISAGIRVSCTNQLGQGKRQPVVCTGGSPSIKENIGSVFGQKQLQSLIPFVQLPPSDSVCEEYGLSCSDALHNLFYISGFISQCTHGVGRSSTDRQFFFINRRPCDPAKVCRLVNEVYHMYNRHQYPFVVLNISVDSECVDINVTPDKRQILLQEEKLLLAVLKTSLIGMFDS

Row | Compound | IC50 [1] [µM] | IC50 [2] [µM]
1 | CC(Oc1cc(O)cc(O)c1C(=O)N1CCCC1)c1ccccc1 (single isomer, unassigned) [Example 13] | > 10 | > 10
2 | CC(Oc1cc(O)cc(O)c1C(=O)N1CCCC1)c1ccccc1 (single isomer, unassigned) [Example 14] | > 10 | > 10
3 | O=C(c1c(O)cc(O)cc1OCc1ncccn1)N1CCCC1 [Example 1, [2,4-dihydroxy-6-(pyrimidin-2-ylmethoxy)phenyl]-pyrrolidin-1-yl-methanone] | > 10 | > 10
4 | O=C(c1c(O)cc(O)cc1OC1CCCC1)N1CCCC1 [Example 2, (2-(cyclopentyloxy)-4,6-dihydroxyphenyl)(pyrrolidin-1-yl)methanone] | > 10 | > 10
5 | O=C(c1c(O)cc(O)cc1OCc1ccccc1)N1CCCC1 [Example 3, (2-benzyloxy-4,6-dihydroxy-phenyl)-pyrrolidin-1-yl-methanone] | > 10 | > 10
6 | O=C(c1c(O)cc(O)cc1OCc1ccccc1)N1Cc2ccccc2C1 [Example 4, (2-benzyloxy-4,6-dihydroxy-phenyl)-isoindolin-2-yl-methanone] | < 1 | < 1
7 | O=C(c1c(O)cc(O)cc1OCc1ccccc1)N1CCCCC1 [Example 5, (2-benzyloxy-4,6-dihydroxy-phenyl)-(1-piperidyl)methanone] | > 10 | > 10
8 | O=C(c1c(O)cc(O)cc1OCc1ccccc1)N1CC[C@H](O)C1 [Example 6, (2-benzyloxy-4,6-dihydroxy-phenyl)-[(3S)-3-hydroxypyrrolidin-1-yl]methanone] | > 10 | > 10
9 | O=C(c1c(O)cc(O)cc1OCc1ccccc1)N1CC[C@@H](O)C1 [Example 7, (2-benzyloxy-4,6-dihydroxy-phenyl)-[(3R)-3-hydroxypyrrolidin-1-yl]methanone] | > 10 | > 10
10 | O=C(c1c(O)cc(O)cc1OCc1ccccc1)N1CCC[C@@H](O)C1 [Example 8, (2-benzyloxy-4,6-dihydroxy-phenyl)-[(3R)-3-hydroxy-1-piperidyl]methanone] | – | > 10
11 | O=C(c1c(O)cc(O)cc1OCc1ccccc1)N1CCC[C@H](O)C1 [Example 9, (2-benzyloxy-4,6-dihydroxy-phenyl)-[(3S)-3-hydroxy-1-piperidyl]methanone] | – | > 10
12 | Cc1c(O)cc(O)c(C(=O)N2CCCC2)c1OCc1ccccc1 [Example 10, (2-benzyloxy-4,6-dihydroxy-3-methyl-phenyl)-pyrrolidin-1-yl-methanone] | 1 to 10 | > 10
13 | CCc1c(O)cc(O)c(C(=O)N2CCCC2)c1OCc1ccccc1 [Example 11, (2-benzyloxy-3-ethyl-4,6-dihydroxy-phenyl)-pyrrolidin-1-yl-methanone] | > 10 | > 10
14 | O=C(c1c(O)cc(O)cc1OCc1ccccn1)N1CCCC1 [Example 12, [2,4-dihydroxy-6-(2-pyridylmethoxy)phenyl]-pyrrolidin-1-yl-methanone] | > 10 | > 10
15 | O=C(c1c(O)cc(O)cc1OCc1ccc(F)cc1)N1CCCC1 [Example 15, [2-[(4-fluorophenyl)methoxy]-4,6-dihydroxy-phenyl]-pyrrolidin-1-yl-methanone] | > 10 | > 10
16 | COc1ccc(COc2cc(O)cc(O)c2C(=O)N2CCCC2)cc1 [Example 16, [2,4-dihydroxy-6-[(4-methoxyphenyl)methoxy]phenyl]-pyrrolidin-1-yl-methanone] | > 10 | > 10
17 | Cc1cccc(COc2cc(O)cc(O)c2C(=O)N2CCCC2)c1 [Example 17, [2,4-dihydroxy-6-(m-tolylmethoxy)phenyl]-pyrrolidin-1-yl-methanone] | – | > 10

Row | Compound | IC50 [1] [µM] | IC50 [2] [µM]
18 | O=C(c1c(O)cc(O)cc1OCc1ccccc1)N1Cc2cccnc2C1 [Example 18, (2-benzyloxy-4,6-dihydroxy-phenyl)-(5,7-dihydropyrrolo[3,4-b]pyridin-6-yl)methanone] | 1 to 10 | 1 to 10
19 | COc1cccc2c1CN(C(=O)c1c(O)cc(O)cc1OCc1ccccc1)C2 [Example 19, (2-benzyloxy-4,6-dihydroxy-phenyl)-(4-methoxyisoindolin-2-yl)methanone] | < 1 | < 1
20 | O=C(c1c(O)cc(O)cc1OCc1ccncn1)N1CCCC1 [Example 20, [2,4-dihydroxy-6-(pyrimidin-4-ylmethoxy)phenyl]-pyrrolidin-1-yl-methanone] | > 10 | > 10
21 | O=C(c1c(O)cc(O)cc1OCc1cc[nH]n1)N1CCCC1 [Example 21, (2-((1H-pyrazol-3-yl)methoxy)-4,6-dihydroxyphenyl)(pyrrolidin-1-yl)methanone] | > 10 | > 10
22 | O=C(c1c(O)cc(O)cc1OCc1c[nH]nn1)N1CCCC1 [Example 22, [2,4-dihydroxy-6-(1H-triazol-4-ylmethoxy)phenyl]-pyrrolidin-1-yl-methanone] | > 10 | > 10
23 | O=C(c1c(O)cc(O)cc1OCc1ccccc1)N1Cc2ccc(Br)cc2C1 [Example 23, (2-benzyloxy-4,6-dihydroxy-phenyl)-(5-bromoisoindolin-2-yl)methanone] | < 1 | < 1
24 | COC(=O)c1ccc2c(c1)CN(C(=O)c1c(O)cc(O)cc1OCc1ccccc1)C2 [Example 24, methyl 2-(2-benzyloxy-4,6-dihydroxy-benzoyl)isoindoline-5-carboxylate] | < 1 | < 1
25 | COc1ccc2c(c1)CN(C(=O)c1c(O)cc(O)cc1OCc1ccccc1)C2 [Example 25, (2-benzyloxy-4,6-dihydroxy-phenyl)-(5-methoxyisoindolin-2-yl)methanone] | < 1 | < 1
26 | COc1cc2c(cc1OC)CN(C(=O)c1c(O)cc(O)cc1OCc1ccccc1)C2 [Example 26, (2-benzyloxy-4,6-dihydroxy-phenyl)-(5,6-dimethoxyisoindolin-2-yl)methanone] | < 1 | 1 to 10
27 | CC(Oc1cc(O)cc(O)c1C(=O)N1Cc2ccccc2C1)c1ccccc1 (stereo not drawn) [Example 27, [2,4-dihydroxy-6-(1-phenylethoxy)phenyl]-isoindolin-2-yl-methanone] | < 1 | 1 to 10
28 | COc1ccc2c(c1)CN(C(=O)c1c(O)cc(O)cc1OC(C)c1ccccc1)C2 (stereo not drawn) [Example 28, [2,4-dihydroxy-6-(1-phenylethoxy)phenyl]-(5-methoxyisoindolin-2-yl)methanone] | < 1 | 1 to 10
29 | COc1cc2c(cc1OC)CN(C(=O)c1c(O)cc(O)cc1OC(C)c1ccccc1)C2 (stereo not drawn) [Example 29, [2,4-dihydroxy-6-(1-phenylethoxy)phenyl]-(5,6-dimethoxyisoindolin-2-yl)methanone] | < 1 | 1 to 10
30 | Cc1cccc(COc2c(C)c(O)cc(O)c2C(=O)N2Cc3cccnc3C2)c1 [Example 31, 5,7-dihydropyrrolo[3,4-b]pyridin-6-yl-[4,6-dihydroxy-3-methyl-2-(m-tolylmethoxy)phenyl]methanone] | < 1 | > 10
31 | Cc1c(O)cc(O)c(C(=O)N2CCc3ccccc3C2)c1OCc1ccccn1 [Example 45, 3,4-dihydro-1H-isoquinolin-2-yl-[4,6-dihydroxy-3-methyl-2-(2-pyridylmethoxy)phenyl]methanone] | – | > 10
32 | COc1ccc2c(c1)CN(C(=O)c1c(O)cc(O)c(C)c1OCc1ccccn1)CC2 [Example 46, [4,6-dihydroxy-3-methyl-2-(2-pyridylmethoxy)phenyl]-(7-methoxy-3,4-dihydro-1H-isoquinolin-2-yl)methanone] | – | > 10
33 | Cc1c(O)cc(O)c(C(=O)N2CCOc3ccccc32)c1OCc1ccccc1 [Example 67, (2-(Benzyloxy)-4,6-dihydroxy-3-methylphenyl)(2,3-dihydro-4H-benzo[b][1,4]oxazin-4-yl)methanone] | – | > 10

Source: patent publication US12552758B2, “Inhibitors of MLH1 and/or PMS2 for cancer treatment” (NeoPhore Limited, priority 2020, dated 2026)
